In ChEMBL document CHEMBL1201862, “PubChem BioAssay data set” (2004):
Blank lines part the entries; values can stand above or below the compound they belong to. Calls of active or inactive are those of the source.

Assays:
[1] = target: T1, Short transient receptor potential channel 4 (Mus musculus, UniProt Q9QUQ5); assay: mouse TRPC4 channel activators, dose response, cell-based, HEK293 TRPC4/mu-opioid, Fluo-4 calcium (AID 434937); type: functional
T1 sequence (Q9QUQ5 whole entry): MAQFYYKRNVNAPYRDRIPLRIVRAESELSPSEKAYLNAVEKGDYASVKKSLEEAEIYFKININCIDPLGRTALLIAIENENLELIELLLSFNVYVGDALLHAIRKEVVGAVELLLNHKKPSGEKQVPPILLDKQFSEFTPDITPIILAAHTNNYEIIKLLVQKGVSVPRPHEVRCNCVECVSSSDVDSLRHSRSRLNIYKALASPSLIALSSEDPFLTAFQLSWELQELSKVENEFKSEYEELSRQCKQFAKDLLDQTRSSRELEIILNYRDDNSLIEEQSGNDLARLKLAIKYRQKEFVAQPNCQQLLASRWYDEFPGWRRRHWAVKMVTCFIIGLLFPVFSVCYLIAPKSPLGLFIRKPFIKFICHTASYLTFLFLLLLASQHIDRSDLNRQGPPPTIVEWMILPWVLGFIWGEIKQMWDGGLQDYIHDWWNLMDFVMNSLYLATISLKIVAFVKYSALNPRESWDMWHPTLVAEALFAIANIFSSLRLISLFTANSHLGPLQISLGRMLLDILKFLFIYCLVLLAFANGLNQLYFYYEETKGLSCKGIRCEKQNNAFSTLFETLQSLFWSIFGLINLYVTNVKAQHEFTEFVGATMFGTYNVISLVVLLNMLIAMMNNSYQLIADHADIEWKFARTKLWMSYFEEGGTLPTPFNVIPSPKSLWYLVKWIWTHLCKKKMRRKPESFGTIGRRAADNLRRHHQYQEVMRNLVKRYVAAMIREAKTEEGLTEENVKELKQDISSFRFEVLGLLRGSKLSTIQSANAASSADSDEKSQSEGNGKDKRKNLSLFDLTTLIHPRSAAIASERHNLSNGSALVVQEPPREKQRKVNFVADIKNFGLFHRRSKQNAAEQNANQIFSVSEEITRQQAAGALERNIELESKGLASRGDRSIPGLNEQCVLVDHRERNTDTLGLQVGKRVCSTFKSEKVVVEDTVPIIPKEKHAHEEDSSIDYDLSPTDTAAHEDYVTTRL

Vero = Vero cell cytotoxicity, cytotoxicity control for flavivirus capping enzyme inhibitors (AID 588742); type: functional; details: Chlorocebus sabaeus
Genome polyprotein = Genome polyprotein (dengue virus type 2, UniProt P29990); assay: Dengue-2 NS5 methyltransferase inhibitors, primary screen, biochemical, confirmation dose response (AID 588689); type: functional
[2] = Luminescence Cell-Based Dose Retest to Confirm Inhibitors of Cancer Stem Cells. [Related pubchem assays (depositor defined):AID2717, AID2721]; type: functional; details: Homo sapiens
Streptococcus = assay: Group A Streptococcus viability loss, dose response, counter-screen for streptokinase expression inhibitor project, luminescence, BacTiterGlo (AID 1915); type: functional, organism-based;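 further: potency for reduction of bacterial viability or growth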
[3] = tested on: Streptococcus sp. 'group A'; assay: growth inhibition of control SK(-) GAS strain, dose response, counter-screen for streptokinase expression inhibitor project, luminescence, kanamycin, BacTiterGlo, confirmation (AID 1900); type: functional, organism-based
Cytochrome P450 2C19 = Cytochrome P450 2C19 (Homo sapiens, UniProt P33261); assay: Cytochrome panel assay with activity outcomes. Panel member name: p450-cyp2c19 Compounds with AC50 equal or less than 10 uM are considered active; type: functional; details: read-out: AC50
Cytochrome P450 1A2 = target: T2, Cytochrome P450 1A2 (Homo sapiens, UniProt P05177);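 further: PubChem cytochrome P450 panel assay, CYP1A2 panel member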
T2 sequence (P05177 whole entry): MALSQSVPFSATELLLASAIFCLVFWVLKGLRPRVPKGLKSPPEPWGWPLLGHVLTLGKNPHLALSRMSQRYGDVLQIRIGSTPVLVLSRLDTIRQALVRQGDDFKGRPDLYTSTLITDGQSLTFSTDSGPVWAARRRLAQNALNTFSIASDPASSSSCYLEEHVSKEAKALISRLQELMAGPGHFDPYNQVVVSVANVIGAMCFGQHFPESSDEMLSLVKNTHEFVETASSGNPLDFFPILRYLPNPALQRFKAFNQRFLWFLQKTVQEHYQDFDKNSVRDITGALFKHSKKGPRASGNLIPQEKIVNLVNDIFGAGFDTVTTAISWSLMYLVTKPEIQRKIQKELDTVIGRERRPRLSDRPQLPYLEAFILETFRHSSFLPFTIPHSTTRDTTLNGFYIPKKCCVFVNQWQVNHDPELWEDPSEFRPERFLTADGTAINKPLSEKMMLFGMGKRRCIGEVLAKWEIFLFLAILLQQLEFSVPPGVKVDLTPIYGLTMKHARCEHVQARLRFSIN

Cytochrome P450 2C9 = Cytochrome P450 2C9 (Homo sapiens, UniProt P11712)
[4] = target: Voltage-dependent T-type calcium channel subunit alpha-1H (Homo sapiens, UniProt O95180); type: functional;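 further: channel activity triggered by adding a high calcium stimulation buffer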
Sequence of Voltage-dependent T-type calcium channel subunit alpha-1H (O95180 whole entry): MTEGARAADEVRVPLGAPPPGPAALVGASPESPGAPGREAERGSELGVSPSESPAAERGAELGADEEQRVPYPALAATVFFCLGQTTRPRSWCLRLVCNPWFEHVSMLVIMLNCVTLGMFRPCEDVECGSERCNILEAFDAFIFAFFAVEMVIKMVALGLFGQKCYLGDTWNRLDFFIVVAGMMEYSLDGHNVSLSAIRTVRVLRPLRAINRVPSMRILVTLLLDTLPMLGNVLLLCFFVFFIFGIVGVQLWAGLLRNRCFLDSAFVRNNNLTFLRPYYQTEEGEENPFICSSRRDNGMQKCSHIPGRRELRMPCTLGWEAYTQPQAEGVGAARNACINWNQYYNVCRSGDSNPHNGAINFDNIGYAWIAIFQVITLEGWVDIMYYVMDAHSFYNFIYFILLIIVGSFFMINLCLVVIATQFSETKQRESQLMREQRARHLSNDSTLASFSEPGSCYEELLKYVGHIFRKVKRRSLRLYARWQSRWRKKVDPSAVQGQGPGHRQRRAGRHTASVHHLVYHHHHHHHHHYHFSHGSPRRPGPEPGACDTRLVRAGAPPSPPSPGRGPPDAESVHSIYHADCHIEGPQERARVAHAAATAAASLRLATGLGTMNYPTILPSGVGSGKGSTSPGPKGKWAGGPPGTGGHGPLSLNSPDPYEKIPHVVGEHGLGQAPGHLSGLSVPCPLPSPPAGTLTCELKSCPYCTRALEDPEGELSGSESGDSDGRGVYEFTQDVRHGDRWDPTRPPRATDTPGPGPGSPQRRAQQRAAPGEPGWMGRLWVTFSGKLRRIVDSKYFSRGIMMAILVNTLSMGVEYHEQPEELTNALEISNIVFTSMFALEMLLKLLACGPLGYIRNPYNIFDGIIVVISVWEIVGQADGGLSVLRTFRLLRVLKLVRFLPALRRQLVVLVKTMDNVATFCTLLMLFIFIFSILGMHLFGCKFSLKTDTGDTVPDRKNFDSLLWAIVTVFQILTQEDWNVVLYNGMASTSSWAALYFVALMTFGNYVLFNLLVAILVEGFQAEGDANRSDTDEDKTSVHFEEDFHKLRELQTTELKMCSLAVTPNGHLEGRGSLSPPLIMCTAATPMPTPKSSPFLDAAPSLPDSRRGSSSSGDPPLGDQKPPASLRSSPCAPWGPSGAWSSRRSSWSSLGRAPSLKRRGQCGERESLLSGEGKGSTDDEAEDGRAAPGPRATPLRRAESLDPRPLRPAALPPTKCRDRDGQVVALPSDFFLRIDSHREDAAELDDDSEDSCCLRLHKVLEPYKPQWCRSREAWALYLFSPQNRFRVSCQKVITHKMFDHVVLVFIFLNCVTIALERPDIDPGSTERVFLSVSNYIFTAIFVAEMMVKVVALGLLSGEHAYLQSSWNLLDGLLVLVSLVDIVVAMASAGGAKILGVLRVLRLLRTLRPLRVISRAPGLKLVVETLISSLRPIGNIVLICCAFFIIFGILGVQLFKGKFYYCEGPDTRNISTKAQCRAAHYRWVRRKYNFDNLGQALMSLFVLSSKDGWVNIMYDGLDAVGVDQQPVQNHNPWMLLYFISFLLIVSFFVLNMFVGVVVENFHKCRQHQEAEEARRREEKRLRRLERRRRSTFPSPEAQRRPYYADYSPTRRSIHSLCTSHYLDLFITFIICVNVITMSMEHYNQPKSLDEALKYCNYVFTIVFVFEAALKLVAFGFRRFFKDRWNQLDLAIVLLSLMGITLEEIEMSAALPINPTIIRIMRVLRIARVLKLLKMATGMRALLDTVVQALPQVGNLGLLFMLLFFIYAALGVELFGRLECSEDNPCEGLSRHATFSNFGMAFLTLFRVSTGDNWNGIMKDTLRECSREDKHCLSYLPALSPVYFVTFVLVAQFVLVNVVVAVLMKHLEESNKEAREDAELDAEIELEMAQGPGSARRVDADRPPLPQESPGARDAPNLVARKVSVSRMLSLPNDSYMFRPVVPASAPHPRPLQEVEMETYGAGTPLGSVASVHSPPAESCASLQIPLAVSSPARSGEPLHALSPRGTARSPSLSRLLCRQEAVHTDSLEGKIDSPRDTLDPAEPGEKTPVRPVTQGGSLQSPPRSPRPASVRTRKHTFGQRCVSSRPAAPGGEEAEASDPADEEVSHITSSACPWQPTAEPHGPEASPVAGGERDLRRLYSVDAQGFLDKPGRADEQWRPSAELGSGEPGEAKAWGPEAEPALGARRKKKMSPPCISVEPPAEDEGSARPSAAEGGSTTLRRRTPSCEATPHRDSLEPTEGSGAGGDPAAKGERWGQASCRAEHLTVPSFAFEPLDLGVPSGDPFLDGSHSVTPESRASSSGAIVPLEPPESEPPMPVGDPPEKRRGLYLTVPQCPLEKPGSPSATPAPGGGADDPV

Sequence of Genome polyprotein (P29990 2492-3391 limits assumed): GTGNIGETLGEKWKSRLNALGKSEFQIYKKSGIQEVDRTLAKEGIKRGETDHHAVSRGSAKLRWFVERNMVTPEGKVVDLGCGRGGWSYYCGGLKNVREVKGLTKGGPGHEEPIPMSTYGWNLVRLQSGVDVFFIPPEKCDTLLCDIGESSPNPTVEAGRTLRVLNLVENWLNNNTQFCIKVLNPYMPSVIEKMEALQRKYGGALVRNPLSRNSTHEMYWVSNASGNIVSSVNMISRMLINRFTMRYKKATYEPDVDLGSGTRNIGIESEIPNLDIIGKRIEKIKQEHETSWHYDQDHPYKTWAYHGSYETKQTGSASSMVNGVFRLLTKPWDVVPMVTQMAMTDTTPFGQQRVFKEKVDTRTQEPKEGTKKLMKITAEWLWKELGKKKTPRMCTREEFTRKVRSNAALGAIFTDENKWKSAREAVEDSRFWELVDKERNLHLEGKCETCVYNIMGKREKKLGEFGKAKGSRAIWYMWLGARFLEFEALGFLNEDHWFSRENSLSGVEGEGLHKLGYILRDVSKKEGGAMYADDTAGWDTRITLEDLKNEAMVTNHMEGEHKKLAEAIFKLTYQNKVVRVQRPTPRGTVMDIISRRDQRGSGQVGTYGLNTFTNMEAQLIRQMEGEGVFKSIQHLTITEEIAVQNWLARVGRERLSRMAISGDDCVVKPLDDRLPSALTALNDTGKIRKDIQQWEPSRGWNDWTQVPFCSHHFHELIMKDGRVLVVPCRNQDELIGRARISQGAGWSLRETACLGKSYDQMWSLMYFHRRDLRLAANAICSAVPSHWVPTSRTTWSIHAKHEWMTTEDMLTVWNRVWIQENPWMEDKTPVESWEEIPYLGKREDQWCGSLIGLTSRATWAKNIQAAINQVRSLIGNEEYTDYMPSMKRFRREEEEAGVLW
Sequence of Cytochrome P450 2C9 (P11712 whole entry): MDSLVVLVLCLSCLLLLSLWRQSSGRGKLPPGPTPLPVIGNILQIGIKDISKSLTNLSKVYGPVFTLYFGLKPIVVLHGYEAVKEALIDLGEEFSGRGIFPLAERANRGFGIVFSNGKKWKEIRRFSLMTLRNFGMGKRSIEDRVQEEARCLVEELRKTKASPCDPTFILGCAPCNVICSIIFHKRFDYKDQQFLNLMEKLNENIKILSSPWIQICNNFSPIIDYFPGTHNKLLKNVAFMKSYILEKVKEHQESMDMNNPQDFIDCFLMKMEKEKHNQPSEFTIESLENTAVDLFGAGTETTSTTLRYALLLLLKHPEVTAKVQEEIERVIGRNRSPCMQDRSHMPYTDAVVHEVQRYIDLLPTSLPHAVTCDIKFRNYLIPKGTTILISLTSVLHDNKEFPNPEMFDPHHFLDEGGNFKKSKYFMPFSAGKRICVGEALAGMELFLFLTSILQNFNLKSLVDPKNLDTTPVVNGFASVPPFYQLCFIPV
Sequence of Cytochrome P450 2C19 (P33261 whole entry): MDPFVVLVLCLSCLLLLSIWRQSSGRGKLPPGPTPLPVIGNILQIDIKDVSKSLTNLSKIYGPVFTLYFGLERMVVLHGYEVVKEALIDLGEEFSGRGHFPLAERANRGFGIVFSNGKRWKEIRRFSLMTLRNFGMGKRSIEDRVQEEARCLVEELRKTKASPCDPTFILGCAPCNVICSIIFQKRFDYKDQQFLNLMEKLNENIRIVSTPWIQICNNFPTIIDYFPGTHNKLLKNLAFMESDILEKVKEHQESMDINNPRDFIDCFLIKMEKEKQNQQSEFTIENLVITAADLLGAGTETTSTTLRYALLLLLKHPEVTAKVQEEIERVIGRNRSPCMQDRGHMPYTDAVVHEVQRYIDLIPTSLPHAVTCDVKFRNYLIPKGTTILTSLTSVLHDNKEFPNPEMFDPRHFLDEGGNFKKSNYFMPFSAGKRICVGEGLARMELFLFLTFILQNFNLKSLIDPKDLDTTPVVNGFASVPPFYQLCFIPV

SMILES: Cc1ccc(C)c(NC(S)=NCCc2c[nH]cn2)c1
- EC50 [1]: 2.66 µM (active)

- IC50 (Genome polyprotein): 40.8 µM (active)
SMILES: COc1ccc(/N=c2\oc3c(OC)cccc3cc2C(=O)NCc2ccco2)c(OC)c1
- CC50 (Vero): > 40 µM (active)

- EC50 [1]: 0.668 µM (active)
SMILES: O=C(c1cccs1)N1CCN(c2ncc(Br)cn2)CC1

SMILES: Cc1[nH]n(-c2ncc(-c3ccc(Cl)cc3)s2)c(=O)c1C(c1ccc(Cl)cc1)C(C#N)C#N (stereo not given)
- CC50 (Vero): > 40 µM (active)
- IC50 (Genome polyprotein): 23 µM (active)
- AC50 [2]: 2.97 µM (active)

SMILES: Cc1ccc(NC(S)=NCCc2c[nH]cn2)cc1C
- EC50 [1]: 0.267 µM (active)

SMILES: CCCc1ccc(OCC(=O)NNC(=S)NC(=O)c2ccco2)cc1
- EC50 (Streptococcus): 1.39 µM (active)
- EC50 [3]: 0.069 µM (active)
- EC50 [1]: 6.68 µM (active)

- AC50 (Cytochrome P450 2C19): 22.4 µM (inconclusive)
- AC50 (Cytochrome P450 1A2): 5.01 µM (inconclusive)
- AC50 (Cytochrome P450 2C9): inconclusive
- EC50 [4]: 4.13 µM (active)
SMILES: Fc1ccc(N2CCN(c3ccc4c(C(F)(F)F)cc(C(F)(F)F)nc4n3)CC2)cc1
